Several values for one entry are separate records, joined by “and”; a condition that tells them apart may be missing. Equal values may be shown once. Read-outs that look alike come from different tables or passages of the source.
What was measured:
[1] = test system: QGY-7703 cells; assay: TUNEL apoptosis assay, QGY-7703; type: cell-based; details: QGY-7703, 10 μM
Protocol: HCC cells were plated 24 h prior to incubation with FQI1. At the indicated time points, cells were analyzed using the FragEL™ DNA fragmentation kit (Calbiochem) according to the manufacturer's protocol. Flow cytometry was performed using a FACS caliber (Becton Dickinson) and analyzed with Cell Quest software.

[2] = molecular target: T1, LSF (Homo sapiens, UniProt Q12800); assay: Cellular Thermal Shift Assay (CETSA), LSF; type: binding; design: expressed in transfected cells
T1 sequence (Q12800 1-502): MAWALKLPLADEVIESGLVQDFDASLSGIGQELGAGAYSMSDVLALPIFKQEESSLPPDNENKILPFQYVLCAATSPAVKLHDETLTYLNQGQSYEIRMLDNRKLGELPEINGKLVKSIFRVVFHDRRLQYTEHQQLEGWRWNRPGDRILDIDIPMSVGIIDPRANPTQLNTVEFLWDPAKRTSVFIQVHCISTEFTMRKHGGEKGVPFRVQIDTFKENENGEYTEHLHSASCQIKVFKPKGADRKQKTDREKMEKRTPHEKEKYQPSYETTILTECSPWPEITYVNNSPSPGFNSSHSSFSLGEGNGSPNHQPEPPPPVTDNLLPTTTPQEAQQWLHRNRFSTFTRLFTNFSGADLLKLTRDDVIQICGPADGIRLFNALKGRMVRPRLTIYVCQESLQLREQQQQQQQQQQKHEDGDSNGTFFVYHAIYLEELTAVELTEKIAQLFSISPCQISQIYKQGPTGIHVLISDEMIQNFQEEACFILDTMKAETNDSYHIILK
Protocol: Drug-target engagement was assessed using CETSA as described by Molina et al. (Monitoring Drug-Target Engagement in Cells and Tissues Using Cellular Thermal Shift Assay. Science (2013) 341, 84-87). QGY-7703 cells were cultured at 37° C. in 5% CO2 in DMEM (Dulbecco's modification of Eagle's Medium; Corning) supplemented with 10% Fetal Bovine Serum (FBS; Invitrogen). Cells were seeded into 10 cm plates and allowed to reach 60-80% confluency. After trypsinization (0.05% Trypsin-EDTA, Invitrogen), cell pellet was washed twice with ice-cold 1×PBS (137 mM NaCl, 2.7 mM KCl, 10 mM Na2HPO4, 2 mM KH2PO4, pH 7.2). Cell pellet was lysed by addition of 200 μL freshly prepared ice-cold RIPA buffer (10 mM Tris-Cl pH 8.0, 1 mM EDTA, 0.5 mM EGTA, 1% Triton X-100, 0.1% sodium deoxycholate, 0.1% SDS, 140 mM NaCl) supplemented with 1 mM Pefabloc (Sigma-Aldrich), and flash frozen in liquid nitrogen and thawed for a total of three cycles. Cell lysate was centrifuged at 20,000×g for 20 minutes to clarify. Supernatant was either treated immediately or saved at −80° C. for future use. […]
Immunoblots were quantified using Image J and graphed using GraphPad PRISM. Area-under-the-curve (AUC) for the quantified western blots were calculated with GraphPad PRISM and non-parametric t-test was calculated to determine statistical significance between the curves. […]

[3] = Pharmacokinetic analysis in rat plasma; type: in vivo; details: for Vd: read-out: VDss; for bioavailability: read-out: % Bioavailability F
Protocol: The purpose of the study was to measure the concentration of FQI-34 in rat plasma samples. The study was performed under non-GLP conditions. All work was performed with appropriate local health regulation and ethical approval. Plasma samples were taken at 0.08, 0.25, 0.5, 1, 2, 4, 8, and 24 hours. Plasma samples were crashed with three volumes of methanol containing an analytical internal standard (propranolol/bucetin/diclofenac). Samples were then centrifuged to remove precipitated protein, and the supernatant was analyzed by LC-MS/MS using a Waters Xevo TQ mass spectrometer coupled with an Acuity HPLC and a CTC PAL chilled autosampler, all controlled by MassLynx software (Waters). The analyte signal was optimized prior to analysis. After separation on a C18 reverse phase HPLC column (Waters Acquity HSS T3 2.1×50 mm 1.8 μM) using an acetonitrile-water gradient system, peaks were analyzed by mass spectrometry (MS) using ESI ionization in MRM mode. All plasma samples were compared to a calibration curve prepared in rat blank plasma.
Male Sprague-Dawley rats were obtained from a commercial source and housed in an AAALAC-approved facility until dosing. For IV dosing, FQI-34 was dissolved in 10% ethanol/16% PEG-400/74% saline at 0.4 mg/mL and in a 1% methylcellulose/0.5% Tween-80 suspension at 10 mg/mL for PO dosing. Three rats per group were dosed by a single IV bolus (10 mL/kg) or PO (10 mL/kg).
Plasma PK-parameters were independently verified and interpreted using PK-solver: An Excel add-In (Zhang, Y. et al. PKSolver: An add-in program for pharmacokinetic and pharmacodynamic data analysis in Microsoft Excel. Comput. Methods Programs Biomed. (2010) 99, 306-314), via a non-compartmental analysis using the linear-trapezoidal method (Fan, J. Pharmacokinetics. Biochemical Pharmacology (2014) 87, 93-120).

[4] = male, Sprague-Dawley, rat, plasma, iv, 4 mg/kg, rat plasma, IV 4 mg/kg, AVERAGE
[5] = male, Sprague-Dawley, rat, plasma, iv, 4 mg/kg, rat plasma, IV 4 mg/kg, individual rats A, B, C
[6] = rat plasma, IV 4 mg/kg, individual rats A, B, C, 4 mg/kg
[7] = rat plasma, PO 100 mg/kg, individual rats A, B, C, 100 mg/kg
[8] = rat, IV 4 mg/kg, individual rats A, B, C, 4 mg/kg

CCOc1ccccc1C1CC(=O)Nc2cc3c(cc21)OCO3 (racemic) [FQI1, 8-(2-ethoxyphenyl)-7,8-dihydro-[1,3]dioxolo[4,5-g]quinolin-6(5H)-one]
apoptosis in flow cytometric TUNEL assay [1]: 90%

CCOc1cc(N(C)C)ccc1C1CC(=O)Nc2cc3c(cc21)OCO3 (stereo not drawn) [FQI-34, 8-(4-(dimethylamino)-2-ethoxyphenyl)-7,8-dihydro-[1,3]dioxolo[4,5-g]quinolin-6(5H)-one]
binding to LSF by CETSA ([2]; QGY-7703 lysate, 500 μM): directly binds | LSF CETSA ([2]; Table 5, YES/NO): YES | clearance ([3]; male, Sprague-Dawley, rat, plasma, iv, 4 mg/kg, IV 4 mg/kg, AVERAGE): 73 mL/min/kg | clearance ([3]; male, Sprague-Dawley, rat, plasma, iv, 4 mg/kg, IV 4 mg/kg, individual rats A, B, C): 65 mL/min/kg | AUC(0-inf) [3, 4]: 935 ng·h/mL | half-life [3, 4]: 48.6 min | C0 ([3]; male, Sprague-Dawley, rat, plasma, iv, 4 mg/kg, rat plasma, IV 4 mg/kg, AVERAGE, read-out: C0): 423 ng/mL | Cmax ([3]; male, Sprague-Dawley, rat, plasma, iv, 4 mg/kg, rat plasma, IV 4 mg/kg, AVERAGE, read-out: Cmax): 552 ng/mL | Tmax ([3]; male, Sprague-Dawley, rat, plasma, iv, 4 mg/kg, rat plasma, IV 4 mg/kg, AVERAGE, read-out: Tmax): 25.2 min | AUC(0-inf) [3, 5]: 1020 ng·h/mL | half-life [3, 5]: 43.8 min | C0 ([3]; male, Sprague-Dawley, rat, plasma, iv, 4 mg/kg, rat plasma, IV 4 mg/kg, individual rats A, B, C, read-out: C0): 434 ng/mL | Cmax ([3]; male, Sprague-Dawley, rat, plasma, iv, 4 mg/kg, rat plasma, IV 4 mg/kg, individual rats A, B, C, read-out: Cmax): 545 ng/mL | Tmax ([3]; male, Sprague-Dawley, rat, plasma, iv, 4 mg/kg, rat plasma, IV 4 mg/kg, individual rats A, B, C, read-out: Tmax): 30 min | Vd ([3]; male, Sprague-Dawley, rat, plasma, iv, 4 mg/kg, rat, IV 4 mg/kg, AVERAGE): 5.1 L/kg | Vd ([3]; male, Sprague-Dawley, rat, plasma, iv, 4 mg/kg, rat, IV 4 mg/kg, individual rats A, B, C): 4.6 L/kg | AUC(0-inf) ([3]; male, Sprague-Dawley, rat, plasma, po, 100 mg/kg, rat plasma, PO 100 mg/kg, AVERAGE): 4960 ng·h/mL | Cmax ([3]; male, Sprague-Dawley, rat, plasma, po, 100 mg/kg, rat plasma, PO 100 mg/kg, AVERAGE, read-out: Cmax): 526 ng/mL | Tmax ([3]; male, Sprague-Dawley, rat, plasma, po, 100 mg/kg, rat plasma, PO 100 mg/kg, AVERAGE, read-out: Tmax): 162 min | AUC(0-inf) ([3]; male, Sprague-Dawley, rat, plasma, po, 100 mg/kg, rat plasma, PO 100 mg/kg, individual rats A, B, C): 4900 ng·h/mL | Cmax ([3]; male, Sprague-Dawley, rat, plasma, po, 100 mg/kg, rat plasma, PO 100 mg/kg, individual rats A, B, C, read-out: Cmax): 500 ng/mL | Tmax ([3]; male, Sprague-Dawley, rat, plasma, po, 100 mg/kg, rat plasma, PO 100 mg/kg, individual rats A, B, C, read-out: Tmax): 240 min | bioavailability ([3]; male, Sprague-Dawley, rat, plasma, po, 100 mg/kg, rat, PO 100 mg/kg, AVERAGE): 21% | bioavailability ([3]; male, Sprague-Dawley, rat, plasma, po, 100 mg/kg, rat, PO 100 mg/kg, individual rats A, B, C): 21% | AUC(0-∞) [3, 6]: 759 ng·h/mL and 1028 ng·h/mL | C0 [3, 6]: 446 ng/mL and 390 ng/mL | Cmax [3, 6]: 548 ng/mL and 564 ng/mL | T1/2 [3, 6]: 43.2 min and 59.4 min | Tmax [3, 6]: 15 min | AUC(0-∞) [3, 7]: 4026 ng·h/mL and 5936 ng·h/mL | Cmax [3, 7]: 501 ng/mL and 577 ng/mL | Tmax [3, 7]: 120 min | CL [3, 8]: 88 mL/min/kg | VDss [3, 8]: 5.4 L/kg and 5.3 L/kg | % Bioavailability F ([3]; rat, PO 100 mg/kg, individual rats A, B, C, 100 mg/kg): 17% and 25%

Source: patent publication US10392398B2, “Inhibitors of Late SV40 Factor (LSF) as cancer chemotherapeutics” (TRUSTEES OF BOSTON UNIVERSITY, priority 2010, dated 2019)
